Columns and labels:
Assay type in all cases: cell-based
RPE = RPE (Homo sapiens, UniProt Q96AT9); experiment: direct LC-MS/MS profiling of modified tryptic peptides; conditions: covalent at Cys5; H358 cells, […] AMG510, […] h (methods print […] h)
S100A16 = molecular target: T1, S100A16 (Homo sapiens, UniProt Q96FQ6); experiment: as above; conditions: covalent at Cys4; H358 cells, […] AMG510, […] h (methods print […] h)
T1 sequence (Q96FQ6 1-103): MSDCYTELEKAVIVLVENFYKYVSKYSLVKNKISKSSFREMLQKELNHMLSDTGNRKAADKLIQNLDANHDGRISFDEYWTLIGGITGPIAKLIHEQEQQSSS

PCBP1 = PCBP1 (Homo sapiens, UniProt Q15365); experiment: as above; conditions: covalent at Cys194; H358 cells, […] AMG510, […] h (methods print […] h)
PCBP1, sequence (Q15365 whole entry): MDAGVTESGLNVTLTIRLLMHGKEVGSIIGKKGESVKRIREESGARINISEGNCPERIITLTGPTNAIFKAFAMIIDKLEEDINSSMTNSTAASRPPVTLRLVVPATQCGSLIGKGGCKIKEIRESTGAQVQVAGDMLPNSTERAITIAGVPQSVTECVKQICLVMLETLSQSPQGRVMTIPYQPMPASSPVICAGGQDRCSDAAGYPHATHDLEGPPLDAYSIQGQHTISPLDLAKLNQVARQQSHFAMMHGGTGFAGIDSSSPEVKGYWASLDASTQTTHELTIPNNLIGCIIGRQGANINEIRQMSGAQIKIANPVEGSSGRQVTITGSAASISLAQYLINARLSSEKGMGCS

HSPD1 = HSPD1 (Homo sapiens, UniProt P10809); experiment: as above; conditions: covalent at Cys237; H358 cells, […] AMG510, […] h (methods print […] h)
HSPD1, sequence (P10809 27-573): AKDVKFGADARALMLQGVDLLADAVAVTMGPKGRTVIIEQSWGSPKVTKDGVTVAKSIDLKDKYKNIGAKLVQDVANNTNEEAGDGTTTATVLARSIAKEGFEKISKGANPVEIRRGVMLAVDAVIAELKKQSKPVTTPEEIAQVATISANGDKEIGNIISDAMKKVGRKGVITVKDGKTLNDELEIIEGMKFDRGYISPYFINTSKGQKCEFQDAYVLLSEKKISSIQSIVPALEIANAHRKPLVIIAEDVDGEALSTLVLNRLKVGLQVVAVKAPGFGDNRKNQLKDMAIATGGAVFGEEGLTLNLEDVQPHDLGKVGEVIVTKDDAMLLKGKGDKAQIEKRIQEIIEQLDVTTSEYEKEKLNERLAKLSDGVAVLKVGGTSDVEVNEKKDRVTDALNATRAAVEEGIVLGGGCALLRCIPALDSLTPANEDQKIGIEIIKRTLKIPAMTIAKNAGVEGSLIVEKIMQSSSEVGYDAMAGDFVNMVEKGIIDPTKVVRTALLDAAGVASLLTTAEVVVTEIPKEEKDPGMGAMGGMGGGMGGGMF

UBE2O = molecular target: T2, UBE2O (Homo sapiens, UniProt Q9C0C9); experiment: as above; conditions: covalent at Cys370; H358 cells, […] AMG510, […] h (methods print […] h)
T2 sequence (Q9C0C9 1-1292): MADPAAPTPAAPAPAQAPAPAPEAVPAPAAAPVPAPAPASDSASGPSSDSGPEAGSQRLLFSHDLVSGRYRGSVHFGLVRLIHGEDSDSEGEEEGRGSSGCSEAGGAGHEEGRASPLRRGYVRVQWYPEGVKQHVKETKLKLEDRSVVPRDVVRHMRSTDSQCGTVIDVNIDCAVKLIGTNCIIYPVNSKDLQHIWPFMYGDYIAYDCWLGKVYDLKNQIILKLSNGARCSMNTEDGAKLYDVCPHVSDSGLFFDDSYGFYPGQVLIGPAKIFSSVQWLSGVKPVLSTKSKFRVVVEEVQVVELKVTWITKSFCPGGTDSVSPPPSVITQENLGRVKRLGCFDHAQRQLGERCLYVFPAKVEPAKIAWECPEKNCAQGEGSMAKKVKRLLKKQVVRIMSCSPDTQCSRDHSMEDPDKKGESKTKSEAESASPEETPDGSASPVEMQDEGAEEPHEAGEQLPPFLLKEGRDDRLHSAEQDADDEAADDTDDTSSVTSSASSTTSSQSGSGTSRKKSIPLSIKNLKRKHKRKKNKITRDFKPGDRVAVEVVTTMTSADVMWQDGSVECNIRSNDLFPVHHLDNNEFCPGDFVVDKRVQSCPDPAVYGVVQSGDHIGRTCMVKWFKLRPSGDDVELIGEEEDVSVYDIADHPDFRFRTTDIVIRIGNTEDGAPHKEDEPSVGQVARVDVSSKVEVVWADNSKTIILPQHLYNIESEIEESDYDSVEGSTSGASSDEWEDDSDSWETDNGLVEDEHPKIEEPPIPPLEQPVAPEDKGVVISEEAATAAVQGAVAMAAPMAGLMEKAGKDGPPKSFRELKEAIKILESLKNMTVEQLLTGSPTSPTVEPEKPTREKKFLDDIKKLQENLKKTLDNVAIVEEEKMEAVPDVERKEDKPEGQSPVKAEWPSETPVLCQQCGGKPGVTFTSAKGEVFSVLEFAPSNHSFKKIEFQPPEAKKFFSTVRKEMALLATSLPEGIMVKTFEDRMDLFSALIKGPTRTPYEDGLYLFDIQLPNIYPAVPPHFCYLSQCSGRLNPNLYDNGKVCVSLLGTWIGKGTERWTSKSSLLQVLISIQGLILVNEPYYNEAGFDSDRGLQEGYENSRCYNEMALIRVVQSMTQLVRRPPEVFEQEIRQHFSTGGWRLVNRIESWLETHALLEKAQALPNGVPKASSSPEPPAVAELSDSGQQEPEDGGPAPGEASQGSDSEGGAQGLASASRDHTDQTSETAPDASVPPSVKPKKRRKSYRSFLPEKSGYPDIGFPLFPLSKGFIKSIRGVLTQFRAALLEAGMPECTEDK

RAE1 = molecular target: T3, RAE1 (Homo sapiens, UniProt P78406); experiment: as above; conditions: covalent at Cys106; H358 cells, […] AMG510, […] h (methods print […] h)
T3 sequence (P78406 1-368): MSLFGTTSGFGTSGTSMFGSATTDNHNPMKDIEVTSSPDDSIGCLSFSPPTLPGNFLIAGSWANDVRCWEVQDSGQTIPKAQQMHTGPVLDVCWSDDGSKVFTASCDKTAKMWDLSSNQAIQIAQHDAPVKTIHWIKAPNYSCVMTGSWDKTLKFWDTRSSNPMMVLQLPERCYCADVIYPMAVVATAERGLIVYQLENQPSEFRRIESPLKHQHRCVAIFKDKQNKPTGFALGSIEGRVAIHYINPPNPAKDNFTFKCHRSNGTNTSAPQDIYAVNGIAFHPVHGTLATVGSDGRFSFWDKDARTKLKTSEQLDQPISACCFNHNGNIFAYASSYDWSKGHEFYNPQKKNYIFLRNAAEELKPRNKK

ALDOA = molecular target: T4, ALDOA (Homo sapiens, UniProt P04075); experiment: LC-MS/MS site mapping; conditions: covalent at Cys339; H358 cells treated with AMG510
T4 sequence (P04075 2-364): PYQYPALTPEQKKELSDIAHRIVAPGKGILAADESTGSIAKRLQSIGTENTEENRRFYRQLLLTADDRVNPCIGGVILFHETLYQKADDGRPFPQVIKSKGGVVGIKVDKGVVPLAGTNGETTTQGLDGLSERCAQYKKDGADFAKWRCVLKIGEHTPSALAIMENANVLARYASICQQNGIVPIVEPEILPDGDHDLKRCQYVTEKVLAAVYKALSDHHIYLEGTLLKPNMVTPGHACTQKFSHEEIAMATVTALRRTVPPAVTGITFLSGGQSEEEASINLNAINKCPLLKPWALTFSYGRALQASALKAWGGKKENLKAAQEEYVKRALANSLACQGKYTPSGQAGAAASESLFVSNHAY

KRT4 = KRT4 (Homo sapiens, UniProt P19013); experiment: direct LC-MS/MS profiling of modified tryptic peptides; conditions: covalent at Cys42; H358 cells, […] AMG510, […] h (methods print […] h)
KRT4, sequence (P19013 whole entry): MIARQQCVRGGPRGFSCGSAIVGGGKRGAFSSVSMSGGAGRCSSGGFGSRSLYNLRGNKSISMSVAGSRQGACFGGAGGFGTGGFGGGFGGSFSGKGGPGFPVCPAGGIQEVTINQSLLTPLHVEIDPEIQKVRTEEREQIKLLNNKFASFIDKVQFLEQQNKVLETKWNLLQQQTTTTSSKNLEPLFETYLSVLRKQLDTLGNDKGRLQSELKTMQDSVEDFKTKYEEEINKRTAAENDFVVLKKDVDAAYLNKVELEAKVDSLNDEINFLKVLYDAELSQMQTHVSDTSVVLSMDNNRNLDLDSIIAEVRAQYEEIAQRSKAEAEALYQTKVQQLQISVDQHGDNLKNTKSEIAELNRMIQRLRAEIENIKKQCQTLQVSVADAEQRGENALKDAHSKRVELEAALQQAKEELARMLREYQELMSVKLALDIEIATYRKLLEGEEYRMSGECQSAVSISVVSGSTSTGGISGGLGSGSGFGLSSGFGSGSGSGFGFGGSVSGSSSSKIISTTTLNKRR

RPE, sequence (Q96AT9 2-228): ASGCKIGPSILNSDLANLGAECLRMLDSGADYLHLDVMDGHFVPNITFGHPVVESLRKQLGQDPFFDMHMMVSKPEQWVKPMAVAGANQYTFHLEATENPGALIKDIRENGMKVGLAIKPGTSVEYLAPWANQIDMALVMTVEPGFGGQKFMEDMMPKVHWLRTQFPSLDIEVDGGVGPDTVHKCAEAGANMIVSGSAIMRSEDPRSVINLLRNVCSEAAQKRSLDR

What does the source list for C=CC(=O)N1CCN(c2nc(=O)n(-c3c(C)ccnc3C(C)C)c3nc(-c4c(O)cccc4F)c(F)cc23)[C@@H](C)C1 [AMG510]?
direct LC-MS/MS profiling of modified tryptic peptides (RPE): They included enzymes (PLOD3 C691, RPE C5, SPTLC2 C99, UBE2O C370, and TK1 C3); direct LC-MS/MS profiling of modified tryptic peptides (S100A16): transporters (RAE1 C106, S100A16C4, VDAC2 C91 and C225); direct LC-MS/MS profiling of modified tryptic peptides (PCBP1): tumor suppressor (PCBP1 C194); direct LC-MS/MS profiling of modified tryptic peptides (HSPD1): protein folding accessory protein (HSPD1 C237); direct LC-MS/MS profiling of modified tryptic peptides (UBE2O): They included enzymes (PLOD3 C691, RPE C5, SPTLC2 C99, UBE2O C370, and TK1 C3); direct LC-MS/MS profiling of modified tryptic peptides (RAE1): transporters (RAE1 C106, S100A16C4, VDAC2 C91 and C225); LC-MS/MS site mapping (ALDOA): We first confirmed that Cys339 was also endogenously modified by AMG510 in H358 cells; direct LC-MS/MS profiling of modified tryptic peptides (KRT4): differentiating epithelia cell markers (KRT4 C42)

Reference: publication PMC9942120 (iScience, 2023)
